The values below come from ChEMBL document CHEMBL1201862, “PubChem BioAssay data set” (2004).

Broadly, the IC50 is the concentration that gives 50% inhibition. What is called AC50 is the midpoint of the concentration-response curve, whichever way the signal moves. For orientation: EC50 means the concentration at which the effect is half-maximal.

The target of assay [1] is T1, Coagulation factor XII (Homo sapiens, UniProt P00748).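 Also: activated factor XIIa alpha cleaving a fluorogenic AMC peptide substrate; inhibitor potency from loss of enzyme activity.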
T1 sequence (P00748 whole entry): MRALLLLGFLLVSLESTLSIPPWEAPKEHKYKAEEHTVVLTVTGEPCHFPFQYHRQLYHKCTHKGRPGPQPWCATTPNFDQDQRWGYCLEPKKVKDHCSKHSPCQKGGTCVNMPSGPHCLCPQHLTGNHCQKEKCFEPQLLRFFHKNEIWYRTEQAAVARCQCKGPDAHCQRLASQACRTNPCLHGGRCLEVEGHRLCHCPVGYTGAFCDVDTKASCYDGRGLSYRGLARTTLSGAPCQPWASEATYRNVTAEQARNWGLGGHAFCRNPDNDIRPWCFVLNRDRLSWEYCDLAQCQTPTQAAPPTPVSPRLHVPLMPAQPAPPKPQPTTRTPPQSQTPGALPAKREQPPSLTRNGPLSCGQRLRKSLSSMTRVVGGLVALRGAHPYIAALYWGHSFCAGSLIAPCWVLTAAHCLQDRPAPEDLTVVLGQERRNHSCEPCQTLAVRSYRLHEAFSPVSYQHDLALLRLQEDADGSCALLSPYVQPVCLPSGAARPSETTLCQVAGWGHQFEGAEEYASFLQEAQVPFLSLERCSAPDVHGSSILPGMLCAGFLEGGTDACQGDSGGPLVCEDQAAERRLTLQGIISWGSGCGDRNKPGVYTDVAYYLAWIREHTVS
Format: functional.

Assay [2] has as its target T2, Caspase-6 (Homo sapiens, UniProt P55212).
T2 sequence (P55212 whole entry): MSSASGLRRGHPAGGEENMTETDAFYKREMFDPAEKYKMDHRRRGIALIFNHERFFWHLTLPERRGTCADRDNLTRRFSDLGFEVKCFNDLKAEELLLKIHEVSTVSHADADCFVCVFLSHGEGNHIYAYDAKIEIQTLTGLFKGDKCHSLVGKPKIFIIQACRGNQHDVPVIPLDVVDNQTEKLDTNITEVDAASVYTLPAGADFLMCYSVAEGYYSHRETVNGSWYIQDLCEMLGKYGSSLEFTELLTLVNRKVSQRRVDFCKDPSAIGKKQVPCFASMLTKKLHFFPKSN
The assay is described as follows: inhibition of CASP6 peptide cleavage – biochemical, VEID-R110 fluorescence, cherry-pick, dose response (AID 720632).

Assay [3] has as its target T3, Microphthalmia-associated transcription factor (Homo sapiens, UniProt O75030).
T3 sequence (O75030 whole entry): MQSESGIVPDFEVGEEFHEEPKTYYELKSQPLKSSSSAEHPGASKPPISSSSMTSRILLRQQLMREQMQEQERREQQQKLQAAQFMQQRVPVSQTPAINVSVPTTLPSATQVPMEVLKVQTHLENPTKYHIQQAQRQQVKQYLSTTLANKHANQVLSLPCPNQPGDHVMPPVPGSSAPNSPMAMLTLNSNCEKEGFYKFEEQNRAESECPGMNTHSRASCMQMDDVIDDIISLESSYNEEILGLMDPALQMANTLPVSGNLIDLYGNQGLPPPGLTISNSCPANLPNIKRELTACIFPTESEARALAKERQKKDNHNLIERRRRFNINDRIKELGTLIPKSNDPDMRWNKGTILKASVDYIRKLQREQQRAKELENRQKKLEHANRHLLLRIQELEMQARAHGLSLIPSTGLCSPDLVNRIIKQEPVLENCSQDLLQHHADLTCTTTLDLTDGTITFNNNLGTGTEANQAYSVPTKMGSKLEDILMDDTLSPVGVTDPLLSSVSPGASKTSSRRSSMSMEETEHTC
The assay is described as follows: reducers of TRPM1 reporter luminescence, concentration series – cell-based, SK-MEL-5, cherry-picked, set 3, MITF inhibitor project, dose response (AID 493073).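 Also: SK-MEL-5 melanoma cells with luciferase driven by the MITF target TRPM1 promoter.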 It counts as functional.

Assay [4] concerns the target Paired box protein Pax-8 (Homo sapiens, UniProt Q06710). In words: PAX8 transcriptional activity inhibition in RMG-I – RMG-I cells, luciferase, cherry-pick, dose response (AID 687027).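 Also: luciferase reporter driven by Pax8 target thyroperoxidase promoter measured by SteadyGlo luminescence.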 Format: functional, cell-based.
Assay [5] deals with T4, CAAX prenyl protease 2 (Saccharomyces cerevisiae S288c, UniProt Q03530).
T4 sequence (Q03530 whole entry): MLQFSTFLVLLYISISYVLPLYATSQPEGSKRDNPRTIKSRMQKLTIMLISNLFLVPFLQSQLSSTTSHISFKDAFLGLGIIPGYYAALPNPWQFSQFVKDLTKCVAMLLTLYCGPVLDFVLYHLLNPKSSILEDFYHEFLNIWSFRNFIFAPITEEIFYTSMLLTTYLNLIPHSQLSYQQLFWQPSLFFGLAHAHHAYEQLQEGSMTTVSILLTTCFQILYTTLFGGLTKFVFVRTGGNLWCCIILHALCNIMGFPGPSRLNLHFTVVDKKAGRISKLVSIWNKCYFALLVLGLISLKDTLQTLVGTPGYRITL
Format: biochemical.

The target in assay [6] is SUMO-activating enzyme (Homo sapiens, UniProt Q9UBT2). The assay is described as follows: blockers of UBC9-mediated SUMO conjugation – biochemical, AlphaScreen, SUMOylation inhibitor project, confirmation (AID 2018). It counts as functional. (In general: In Alpha technology, singlet oxygen from a donor bead excites a nearby acceptor bead.)
Chain of SUMO-activating enzyme (Q9UBE0 whole entry): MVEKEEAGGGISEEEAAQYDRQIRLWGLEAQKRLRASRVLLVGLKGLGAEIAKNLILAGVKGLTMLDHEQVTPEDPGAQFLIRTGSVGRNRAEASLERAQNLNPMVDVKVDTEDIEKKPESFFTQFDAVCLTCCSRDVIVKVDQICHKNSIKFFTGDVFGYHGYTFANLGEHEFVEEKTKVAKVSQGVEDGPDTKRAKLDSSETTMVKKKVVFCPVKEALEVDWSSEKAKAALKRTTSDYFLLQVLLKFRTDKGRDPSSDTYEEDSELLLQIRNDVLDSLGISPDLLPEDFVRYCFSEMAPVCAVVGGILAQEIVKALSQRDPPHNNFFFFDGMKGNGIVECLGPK
Chain of SUMO-activating enzyme (Q9UBT2 whole entry): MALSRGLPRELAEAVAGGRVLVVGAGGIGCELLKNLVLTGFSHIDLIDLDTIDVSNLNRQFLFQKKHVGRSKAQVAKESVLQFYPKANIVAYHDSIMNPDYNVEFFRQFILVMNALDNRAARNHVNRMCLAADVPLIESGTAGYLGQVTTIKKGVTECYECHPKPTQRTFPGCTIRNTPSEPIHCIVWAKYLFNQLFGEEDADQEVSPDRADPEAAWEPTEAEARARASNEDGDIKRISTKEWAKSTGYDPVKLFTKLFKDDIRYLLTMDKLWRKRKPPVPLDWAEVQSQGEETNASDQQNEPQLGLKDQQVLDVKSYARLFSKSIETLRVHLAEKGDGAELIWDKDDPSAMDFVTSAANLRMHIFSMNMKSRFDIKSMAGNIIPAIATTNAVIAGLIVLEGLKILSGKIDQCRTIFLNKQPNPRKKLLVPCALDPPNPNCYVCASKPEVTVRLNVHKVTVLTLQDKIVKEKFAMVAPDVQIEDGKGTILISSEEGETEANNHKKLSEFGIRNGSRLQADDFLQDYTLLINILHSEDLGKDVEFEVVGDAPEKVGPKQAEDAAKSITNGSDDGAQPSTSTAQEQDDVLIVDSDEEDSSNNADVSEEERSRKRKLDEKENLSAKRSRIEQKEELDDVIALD
Assay [7] can be described thus: cells. Format: functional.
A short description of assay [8]: THP-1 cell cytotoxicity, dose response, cytotoxicity control for non-replicating M. tuberculosis project (AID 489025). It counts as functional.
Assay [9] can be described thus: microbe, parasite or virus in culture. Format: functional. Particulars: Mycobacterium tuberculosis.
The nature of assay [10]: Vero E6 cell cytotoxicity, dose response, cytotoxicity control for non-replicating M. tuberculosis project, secondary assay (AID 492998). Particulars: Vero C1008. It counts as functional, VeroE6.
Assay [11] deals with HEK293. The assay is described as follows: cells. Particulars: Homo sapiens.
Assay [12] concerns HEK293. The assay is described as follows: cells. Conditions: Homo sapiens. This is another data set of the same source.
In assay [13] the target is Eukaryotic translation initiation factor 4E (Mus musculus, UniProt P63073). In words: blockers of eIF4G binding by eIF4E – biochemical, TR-FRET, dose response (AID 855).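 Also: potency for disrupting eIF4E binding to eIF4GI seen as loss of FRET.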 It counts as functional. On the technique in general: In TR-FRET formats the signal depends on donor and acceptor labels being close together.
Chain of Eukaryotic translation initiation factor 4E (P63073 whole entry): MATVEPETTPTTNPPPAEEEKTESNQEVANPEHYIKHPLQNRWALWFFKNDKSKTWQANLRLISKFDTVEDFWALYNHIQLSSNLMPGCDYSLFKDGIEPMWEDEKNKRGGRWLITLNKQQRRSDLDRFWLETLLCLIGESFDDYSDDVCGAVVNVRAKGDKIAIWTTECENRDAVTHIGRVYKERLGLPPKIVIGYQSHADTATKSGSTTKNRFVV
Assay [14] is described as follows: loss of viability in HepG2 cells – cell-based, CellTiter-Glo, cherry-picked, cytotoxicity control for Shn3 inhibitor project, dose response (AID 624134). Format: functional.
Assay [15] is described as follows: non-specific 3'UTR reporter inhibition in Clone20-Shn3RL – cell-based, Renilla luciferase, cherry-picked, counter-screen for Shn3 inhibitor project, dose response (AID 624133). Format: functional.
Assay [16] concerns the target T5, Replicative DNA helicase DnaB (Mycobacterium tuberculosis, UniProt P9WMR3).
T5 sequence (P9WMR3 whole entry): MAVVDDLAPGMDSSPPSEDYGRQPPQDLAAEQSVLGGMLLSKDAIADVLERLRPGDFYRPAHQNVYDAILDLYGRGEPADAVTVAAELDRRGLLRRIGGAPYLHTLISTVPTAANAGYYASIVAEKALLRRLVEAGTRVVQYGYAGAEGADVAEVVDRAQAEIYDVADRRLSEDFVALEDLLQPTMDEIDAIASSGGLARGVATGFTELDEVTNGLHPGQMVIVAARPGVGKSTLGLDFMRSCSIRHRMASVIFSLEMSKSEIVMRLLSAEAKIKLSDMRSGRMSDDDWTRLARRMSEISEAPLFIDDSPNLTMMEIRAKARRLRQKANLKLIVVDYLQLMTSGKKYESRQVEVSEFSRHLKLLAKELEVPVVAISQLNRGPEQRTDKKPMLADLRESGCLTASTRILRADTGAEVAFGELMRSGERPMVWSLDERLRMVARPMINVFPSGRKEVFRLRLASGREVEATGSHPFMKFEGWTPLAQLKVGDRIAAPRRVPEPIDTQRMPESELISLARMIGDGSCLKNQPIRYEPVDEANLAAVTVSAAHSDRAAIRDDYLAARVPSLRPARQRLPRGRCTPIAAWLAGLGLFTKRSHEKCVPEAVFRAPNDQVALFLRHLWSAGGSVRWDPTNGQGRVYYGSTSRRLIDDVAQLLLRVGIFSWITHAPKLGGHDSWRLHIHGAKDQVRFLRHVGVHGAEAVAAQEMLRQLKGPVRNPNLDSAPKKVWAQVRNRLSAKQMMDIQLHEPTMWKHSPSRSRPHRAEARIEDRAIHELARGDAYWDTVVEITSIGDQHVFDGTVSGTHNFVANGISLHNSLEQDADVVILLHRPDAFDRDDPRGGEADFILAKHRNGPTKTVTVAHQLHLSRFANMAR
In words: DnaB intein splicing inhibitors, dose response, biochemical, cell-free fluorescence (AID 449749). Format: functional.

In assay [17] the target is T6, Protein RecA (Mycobacterium tuberculosis, UniProt P9WHJ3).
T6 sequence (P9WHJ3 whole entry): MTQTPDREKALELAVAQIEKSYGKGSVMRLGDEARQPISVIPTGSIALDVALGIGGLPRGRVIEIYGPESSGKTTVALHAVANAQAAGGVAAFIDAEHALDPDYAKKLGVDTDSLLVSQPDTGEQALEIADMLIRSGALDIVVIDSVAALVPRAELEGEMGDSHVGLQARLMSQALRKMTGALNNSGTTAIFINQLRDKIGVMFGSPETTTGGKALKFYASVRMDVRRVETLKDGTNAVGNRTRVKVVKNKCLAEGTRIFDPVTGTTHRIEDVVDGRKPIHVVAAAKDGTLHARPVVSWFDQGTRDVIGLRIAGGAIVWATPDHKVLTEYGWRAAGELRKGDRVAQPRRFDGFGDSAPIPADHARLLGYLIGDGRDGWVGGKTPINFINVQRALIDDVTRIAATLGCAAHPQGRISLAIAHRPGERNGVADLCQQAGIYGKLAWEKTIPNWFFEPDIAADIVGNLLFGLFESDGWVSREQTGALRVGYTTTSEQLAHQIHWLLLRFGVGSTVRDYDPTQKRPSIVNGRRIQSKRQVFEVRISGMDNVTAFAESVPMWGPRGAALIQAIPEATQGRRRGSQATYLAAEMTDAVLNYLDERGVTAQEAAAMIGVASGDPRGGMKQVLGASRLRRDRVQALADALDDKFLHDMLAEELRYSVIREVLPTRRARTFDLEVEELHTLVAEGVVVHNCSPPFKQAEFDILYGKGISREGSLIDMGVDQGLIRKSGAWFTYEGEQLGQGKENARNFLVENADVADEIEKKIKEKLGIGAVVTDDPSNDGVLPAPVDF
In words: Fluorescence Cell-Free Homogeneous Dose Retest to Identify Inhibitors of RecA-Intein Splicing Activity. [Related pubchem assays (depositor defined):AID2097, AID2223, AID489010, AID492950]. It counts as functional.

Assay [18] can be described thus: reduction of Shn3 3'UTR-driven luciferase in osteoblasts – cell-based, Clone20 osteoblasts, firefly luciferase, cherry-picked, dose response (AID 624132).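 Also: firefly luciferase luminescence from reporter carrying the Shn3 3'UTR in osteoblasts.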 It counts as functional.

Calls of active or inactive are those of the source. A value given as a limit tells only on which side of the number the result lay.

Chain of Paired box protein Pax-8 (Q06710 whole entry): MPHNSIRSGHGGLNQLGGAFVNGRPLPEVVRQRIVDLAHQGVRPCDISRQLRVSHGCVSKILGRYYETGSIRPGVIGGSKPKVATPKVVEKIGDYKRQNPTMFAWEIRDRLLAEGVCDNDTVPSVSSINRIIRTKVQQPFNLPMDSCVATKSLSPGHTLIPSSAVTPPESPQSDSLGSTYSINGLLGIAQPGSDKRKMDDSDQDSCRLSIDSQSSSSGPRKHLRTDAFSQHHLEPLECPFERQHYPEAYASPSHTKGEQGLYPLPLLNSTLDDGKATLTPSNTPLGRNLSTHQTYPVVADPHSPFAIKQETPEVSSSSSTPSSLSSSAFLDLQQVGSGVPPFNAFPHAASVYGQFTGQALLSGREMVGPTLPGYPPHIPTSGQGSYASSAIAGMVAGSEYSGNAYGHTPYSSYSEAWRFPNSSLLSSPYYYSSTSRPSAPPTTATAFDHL

Take `Cc1ccc(C(=O)NCC(=O)OC(C)C(=O)Nc2ccc(N3CCOCC3)cc2)s1` (stereo not drawn): the IC50 in assay [1] is > 50 µM (inactive).
Regarding `O=C1c2oc3ccccc3c(=O)c2C(c2cccc(F)c2)N1CCCO` (stereo not drawn), in assay [1], the IC50 was > 50 µM (inactive).
As to `CC(=O)N1CCc2c(sc(NC(=O)c3ccc([N+](=O)[O-])o3)c2C#N)C1`, the AC50 in assay [2] was 26.6 µM (active); in assay [3], 2.22 µM (active); in assay [4], 2.71 µM (active).
In the case of `Cc1ccc(-c2cc(C)nc3nc(N)nn23)cc1`, the AC50 in [5] was 62.7 µM (active).
With `COc1ccc(Cc2n[nH]c(=S)n2NC(=O)Nc2ccc(C)cc2)cc1`, the IC50 in assay [6] was > 100 µM (inactive).
Turning to `CSc1ccc(C(=O)C2CCCN(C(=O)c3ccc4c(c3)no[n+]4[O-])C2)cc1` (stereo not drawn), the IC50 in assay [7] was 1.5 µM (active). In addition, the CC50 was 39.4 µM (active) in assay [8], 10.8 µM (active) in assay [9] and 13.7 µM (active) in [10].
On to `CCOC(=O)CSc1nc(N)c(C#N)c(-c2ccc(OCC)cc2)c1C#N`, for which the EC50 in assay [11] and in assay [12] was > 59.6 µM (inactive) in each case.
Consider `COc1cc(OC)c(/C=N/NC(=O)c2ccc(NC(C)=O)cc2)cc1Br`, for which the values for the IC50 in [6] and in assay [13] were 22.1 µM (active) and 50 µM (inactive), respectively.
As to `O=C(NNC(=O)c1cnccn1)c1ccc(Cl)c(Cl)c1`, the IC50 in assay [7] was 6.17 µM (active). Besides, the values for the CC50 in assay [8] and in assay [10] were 14.6 µM (active) and 12.5 µM (active), respectively.
In the case of `O=C(Nc1cc(=O)[nH]c2ncnn12)c1ccco1`, the IC50 in assay [1] was > 50 µM (inactive).
As to `COC(=O)/C(=C1/Oc2cc(C)oc(=O)c2S1)C(F)(F)F`, the AC50 in assay [14] was 43 µM (active); in assay [15], 16.6 µM (active); in [16], > 380 µM (inactive); in [18], 4.64 µM (active). Besides, the IC50 in assay [7] was 1.64 µM (active). In addition, the CC50 in [8] was 10.2 µM (active); in assay [9], 9.91 µM (active); in [10], 7.26 µM (active). For the same compound, the EC50 in assay [17] was 3.74 µM (active).
